Assay results from ChEMBL document CHEMBL5550199, “Rational In Silico Design of Selective TMPRSS6 Peptidomimetic Inhibitors via Exploitation of the S2 Subpocket” (J Med Chem, 2024).
Values after ≈ are worked out from the molar mass of the structure shown. Active and inactive are the calls of the source. No cut-off for these calls is given here.

Assays:
[1] = target: T1, Suppressor of tumorigenicity 14 protein (Homo sapiens) (UniProt Q9Y5Y6); assay: Inhibition of recombinant human Matriptase at 100 nM by Michaelis-Menten analysis relative to control
T1 sequence (whole entry): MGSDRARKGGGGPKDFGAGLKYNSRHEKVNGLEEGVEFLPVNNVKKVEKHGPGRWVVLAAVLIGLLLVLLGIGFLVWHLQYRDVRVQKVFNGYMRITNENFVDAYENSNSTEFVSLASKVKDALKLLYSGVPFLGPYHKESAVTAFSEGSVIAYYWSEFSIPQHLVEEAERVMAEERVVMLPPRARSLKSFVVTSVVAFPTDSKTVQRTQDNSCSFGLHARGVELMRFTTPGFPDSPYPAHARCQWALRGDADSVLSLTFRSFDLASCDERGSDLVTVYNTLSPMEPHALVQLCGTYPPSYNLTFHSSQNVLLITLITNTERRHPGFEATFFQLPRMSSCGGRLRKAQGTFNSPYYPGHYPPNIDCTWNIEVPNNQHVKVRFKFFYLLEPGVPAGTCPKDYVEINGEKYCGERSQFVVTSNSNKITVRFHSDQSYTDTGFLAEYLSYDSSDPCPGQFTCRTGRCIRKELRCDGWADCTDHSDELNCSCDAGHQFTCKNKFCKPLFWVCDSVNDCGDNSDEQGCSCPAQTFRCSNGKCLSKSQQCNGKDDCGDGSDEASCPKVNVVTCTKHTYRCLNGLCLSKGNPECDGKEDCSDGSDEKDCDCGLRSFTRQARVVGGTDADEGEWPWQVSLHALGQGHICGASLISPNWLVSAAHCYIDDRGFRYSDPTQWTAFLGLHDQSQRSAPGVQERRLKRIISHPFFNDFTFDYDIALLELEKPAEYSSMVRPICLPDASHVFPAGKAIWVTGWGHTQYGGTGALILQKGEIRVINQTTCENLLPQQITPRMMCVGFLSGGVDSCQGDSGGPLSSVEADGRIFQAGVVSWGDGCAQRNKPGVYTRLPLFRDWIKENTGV

Caco-2 [2] = assay: Disruption of epithelial integrity in human Caco-2 cells assessed as change in TEER modulation at 10 uM after 8 days; format: functional, cell-based; settings: time 8.0 day
[3] = Metabolic stability in Sprague-Dawley rat microsome assessed as intrinsic clearance measured for 120 mins in presence of NADPH by UPLC-MS analysis; format: ADME; settings: microsomes, 2 h
[4] = target: T2, Transmembrane protease serine 6 (Homo sapiens, UniProt Q8IU80); assay: Inhibition of human TMPRSS6 transfected in HEK293SL cells using Boc-QAR-AMC as substrate measured for 24 hrs; format: cell-based
T2 sequence (Q8IU80 whole entry): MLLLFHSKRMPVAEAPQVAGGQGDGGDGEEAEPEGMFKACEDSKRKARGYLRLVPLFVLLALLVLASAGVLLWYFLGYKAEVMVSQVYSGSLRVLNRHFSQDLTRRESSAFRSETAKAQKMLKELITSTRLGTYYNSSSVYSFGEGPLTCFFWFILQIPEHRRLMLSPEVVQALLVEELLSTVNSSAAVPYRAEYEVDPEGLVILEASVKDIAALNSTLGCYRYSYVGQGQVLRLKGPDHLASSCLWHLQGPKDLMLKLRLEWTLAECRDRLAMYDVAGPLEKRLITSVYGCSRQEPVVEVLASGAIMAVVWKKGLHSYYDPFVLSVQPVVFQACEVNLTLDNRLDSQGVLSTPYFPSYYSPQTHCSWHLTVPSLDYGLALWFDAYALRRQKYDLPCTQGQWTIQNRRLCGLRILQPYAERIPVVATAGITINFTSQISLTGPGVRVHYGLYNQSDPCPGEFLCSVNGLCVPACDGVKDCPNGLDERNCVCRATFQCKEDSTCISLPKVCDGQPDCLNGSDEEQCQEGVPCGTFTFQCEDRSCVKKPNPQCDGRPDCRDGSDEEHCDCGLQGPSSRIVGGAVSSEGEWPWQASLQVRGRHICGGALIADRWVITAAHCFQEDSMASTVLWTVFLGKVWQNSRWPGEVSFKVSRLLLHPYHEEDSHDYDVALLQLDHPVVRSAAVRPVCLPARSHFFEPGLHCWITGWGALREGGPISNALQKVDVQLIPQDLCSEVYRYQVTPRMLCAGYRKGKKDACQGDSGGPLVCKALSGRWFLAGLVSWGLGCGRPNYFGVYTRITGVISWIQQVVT

Coagulation factor X [5] = target: T3, Coagulation factor X (Homo sapiens, UniProt P00742); assay: Inhibition of recombinant human FXA using Boc-QAR-AMC as substrate assessed as inhibition constant by fluorescence based analysis
T3 sequence (P00742 41-179 limits assumed): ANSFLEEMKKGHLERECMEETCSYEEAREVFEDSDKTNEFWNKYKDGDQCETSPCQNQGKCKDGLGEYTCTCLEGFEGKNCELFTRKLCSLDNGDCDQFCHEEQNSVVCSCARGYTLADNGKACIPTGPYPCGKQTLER
T3 sequence (P00742 235-488 limits assumed): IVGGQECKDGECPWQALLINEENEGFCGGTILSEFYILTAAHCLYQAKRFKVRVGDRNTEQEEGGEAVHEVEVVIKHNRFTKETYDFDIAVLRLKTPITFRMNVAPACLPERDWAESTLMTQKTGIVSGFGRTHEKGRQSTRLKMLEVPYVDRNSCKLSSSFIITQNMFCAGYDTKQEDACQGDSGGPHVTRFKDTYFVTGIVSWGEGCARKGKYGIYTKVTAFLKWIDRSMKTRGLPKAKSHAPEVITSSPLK

Prothrombin [6] = target: T4, Prothrombin (Homo sapiens, UniProt P00734); assay: Inhibition of thrombin (unknown origin)
[7] = Cytotoxicity against HEK cells assessed as reduction in cell viability measured for 24 hrs by celltiter-glo 2.0 assay; format: toxicity, cell-based; settings: human
Furin [8] = target: T5, Furin (Homo sapiens, UniProt P09958); assay: Inhibition of furin (unknown origin)
T5 sequence (P09958 whole entry): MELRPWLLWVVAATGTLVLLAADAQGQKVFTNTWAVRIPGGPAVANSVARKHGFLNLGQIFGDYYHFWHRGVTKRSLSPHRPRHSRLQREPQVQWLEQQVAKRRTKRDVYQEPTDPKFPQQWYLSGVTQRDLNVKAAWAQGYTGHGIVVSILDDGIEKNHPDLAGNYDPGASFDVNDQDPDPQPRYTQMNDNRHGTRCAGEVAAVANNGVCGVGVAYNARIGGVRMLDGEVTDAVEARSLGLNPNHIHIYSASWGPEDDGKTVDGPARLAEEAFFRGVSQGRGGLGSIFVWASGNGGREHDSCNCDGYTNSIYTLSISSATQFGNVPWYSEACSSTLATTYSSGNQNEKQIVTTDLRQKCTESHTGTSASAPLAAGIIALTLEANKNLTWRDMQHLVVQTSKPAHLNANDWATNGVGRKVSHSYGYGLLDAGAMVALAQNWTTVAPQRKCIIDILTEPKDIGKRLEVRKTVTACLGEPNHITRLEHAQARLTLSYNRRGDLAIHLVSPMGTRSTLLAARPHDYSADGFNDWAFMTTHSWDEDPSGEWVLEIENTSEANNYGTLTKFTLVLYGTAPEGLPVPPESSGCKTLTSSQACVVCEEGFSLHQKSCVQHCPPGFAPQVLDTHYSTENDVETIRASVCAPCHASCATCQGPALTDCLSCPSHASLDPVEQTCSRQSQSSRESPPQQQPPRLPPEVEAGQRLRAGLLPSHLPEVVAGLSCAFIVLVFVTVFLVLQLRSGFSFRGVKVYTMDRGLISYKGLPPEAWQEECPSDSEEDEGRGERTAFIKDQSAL

Homo sapiens [9] = species: Homo sapiens; assay: Selectivity index, ratio of IC50 for inhibition of human Matriptase transfected in HEK293SL cells using Boc-QAR-AMC as substrate to IC50 for inhibition of human TMPRSS6 transfected in HEK293SL cells using Boc-QAR-AMC as substrate; format: cell-based
Homo sapiens [10] = species: Homo sapiens; assay: (§1) Selectivity index, ratio of Ki for binding affinity to recombinant human Matriptase using Boc-QAR-AMC as substrate assessed as inhibition constant by fluorescence based analysis to Ki for binding affinity to recombinant human TMPRSS6 using Boc-QAR-AMC as substrate assessed as inhibition constant by fluorescence based analysis
[11] = Apparent Permeability of compound in PBS buffer at pH 7.4 incubated for 17 hrs by PAMPA assay; format: ADME; settings: pH 7.4, 17 h
[12] = Stability in Sprague-Dawley rat plasma assessed as parent compound remaining at 24 hrs by UPLC-MS analysis; format: ADME, cell-free
[13] = Metabolic stability in Sprague-Dawley rat microsome assessed as half life measured for 120 mins in presence of NADPH by UPLC-MS analysis; format: ADME; settings: microsomes, 2 h
[14] = target: T2, Transmembrane protease serine 6; assay: Competitive tight binding inhibition of recombinant human TMPRSS6 using Boc-QAR-AMC as substrate assessed as inhibition constant by fluorescence based analysis
Homo sapiens [15] = species: Homo sapiens; assay: as §1, with “for competitive tight” for “for”, “inhibition of” for “affinity to”
Caco-2 [16] = assay: Disruption of epithelial integrity in human Caco-2 cells assessed as change in TEER modulation after 8 days; format: functional, cell-based; settings: Caco-2, 192 h
[17] = Solubility of compound in PBS at pH 7.4 measured for 90 mins by UPLC analysis; format: physicochemical; settings: buffer, pH 7.4, 1.5 h
[18] = target: T6, Transmembrane protease serine 6 (Homo sapiens) (UniProt Q8IU80); assay: Inhibition of recombinant human TMPRSS6 at 100 nM by Michaelis-Menten analysis relative to control
T6 sequence (whole entry): T2 sequence (Q8IU80 whole entry)

Coagulation factor X [19] = target: T3, Coagulation factor X; assay: Inhibition of FXA (unknown origin)
[20] = target: T7, Suppressor of tumorigenicity 14 protein (Homo sapiens, UniProt Q9Y5Y6); assay: Competitive tight binding inhibition of recombinant human Matriptase using Boc-QAR-AMC as substrate assessed as inhibition constant by fluorescence based analysis
T7 sequence (Q9Y5Y6 whole entry): T1 sequence (whole entry)

Prothrombin [21] = target: T4, Prothrombin; assay: Inhibition of recombinant human thrombin using Boc-QAR-AMC as substrate assessed as inhibition constant by fluorescence based analysis
[22] = target: T2, Transmembrane protease serine 6; assay: Binding affinity to recombinant human TMPRSS6 using Boc-QAR-AMC as substrate assessed as inhibition constant by fluorescence based analysis
[23] = target: T7, Suppressor of tumorigenicity 14 protein; assay: Inhibition of human Matriptase transfected in HEK293SL cells using Boc-QAR-AMC as substrate measured for 24 hrs; format: cell-based
Furin [24] = target: T5, Furin; assay: Inhibition of recombinant human furin using Boc-RVRR-AMC as substrate assessed as inhibition constant by fluorescence based analysis
[25] = target: T7, Suppressor of tumorigenicity 14 protein; assay: Binding affinity to recombinant human Matriptase using Boc-QAR-AMC as substrate assessed as inhibition constant by fluorescence based analysis

inhibition [1]: 5% | CLH [3]: 1.12 µL/min/mg | IC50 [4]: 4.4 nM | Ki (Coagulation factor X [5]): 2320 nM | Ki (Prothrombin [6]): 1100 nM | Ki (Furin [8]): > 30000 nM | Ratio Ki (Homo sapiens [10]): 7.2 | Papp [11]: 0.004 10^-6 cm/s | Stability [12]: 6% | t1/2 [13]: > 2 h | Ki [14]: 0.6 nM | Ratio Ki (Homo sapiens [15]): 8 | IC50 (Caco-2 [16]): 18.1 nM | solubility [17]: 250 µM (≈ 169 µg/mL) | inhibition [18]: 1% | Ki (Coagulation factor X [19]): 323 nM | Ki [20]: 4.8 nM | Ki (Prothrombin [21]): 53 nM | Ki [22]: 1.2 nM | IC50 [23]: 18.1 nM | Ki (Furin [24]): > 10000 nM | Ki [25]: 8.6 nM
SMILES: CC(C)[C@H](NC(=O)[C@H](Cc1cscn1)NC(=O)CCc1ccccc1)C(=O)N[C@@H](CCCNC(=N)N)C(=O)c1nc2ccccc2s1
Activity (Caco-2 [2]): Active | Activity [7]: Non-Toxic | Ratio IC50 (Homo sapiens [9]): 4
